Drawing on PubChem BioAssay (NCI), this text covers TGI for nine compounds.

Common to all, as to assay: NCI tumour cell line growth inhibition, 48 h
The subject of test [1] is U251 CNS.
In test [2] the test system is HOP-92 NSCLC.
The subject of test [3] is OVCAR-5 ovarian.
The subject of test [4] is MCF7 breast.
Test [5] concerns IGROV1 ovarian.
For test [6], the system named is MDA-N.
Test [7] has as its system RPMI-8226 leukemia.
Test [8] deals with SF-295 CNS.
Test [9] has as its system HOP-62 NSCLC.
Test [10] concerns EKVX NSCLC.
The subject of test [11] is ACHN renal.
In test [12] the test system is SW-620 colon.
For test [13], the system named is SK-MEL-2 melanoma.
Test [14] deals with LOX IMVI melanoma.
Test [15] has as its system CCRF-CEM leukemia.
Test [16] deals with HCC-2998 colon.
Test [17] deals with NCI-H522 lung.
Test [18] deals with RXF 393 renal.

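Step 1: Grow cells in 96-well plates. Step 2: Expose to compound for 48 hours at 5 concentrations. Step 3: Interpolate endpoints linearly; if unreached, use highest concentration. At the TGI there is no net growth.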 Some results are limits rather than exact numbers.

As to `CC1(C)OC[C@@H]([C@H](C=O)OCc2ccccc2)O1`, the TGI in test [1], in test [2], in test [3], in [4], in test [5] and in test [6] was more than 100 µM in each case. Besides, the TGI in [7], in [8], in [9], in test [10], in test [11] and in test [12] was more than 100 µM in each case. Also, the TGI in [13], in [14] and in test [15] was more than 100 µM each time.

For the compound `COc1cc(Br)cc2c1O[C@H]1C(=O)CC3CC21CCN3C` (some centres not stated), the TGI in test [3] is more than 100 µM; in test [4], more than 100 µM; in [5] it was more than 100 µM; in test [6] it was more than 100 µM; in test [7] it was 63.4 µM; in test [8] it was more than 100 µM. Moreover, the TGI in [9], in [10], in test [16], in test [11], in [12] and in [13] was more than 100 µM throughout. In addition, the TGI was more than 100 µM in test [14] and 43.9 µM in test [15].

Consider `COc1ccccc1NC(=S)NNC(=O)c1cc(-c2ccccc2)nc2ccccc12`, for which the TGI was 43.7 µM in test [1]; 36.5 µM in test [2]; 47 µM in [3]; 50 µM in test [17]; 68.5 µM in test [5]; 7.78 µM in test [6]. In addition, the TGI was 53.6 µM in test [7]; 18 µM in test [8]; 32 µM in [9]; 28.6 µM in test [16]; 65.8 µM in test [11]; 84.9 µM in test [12]. Also, the TGI in test [13] was 31.2 µM; in test [15], 6.95 µM; in [18], 28.8 µM.

Regarding `COc1cc(C2SC(N)=Nc3c2c(C)nn3C(=O)Cc2ccccc2)cc(OC)c1OC` (configuration not stated), the TGI in test [17], in test [4], in test [5], in test [6], in test [7] and in [8] was more than 100 µM throughout. The TGI in test [9], in test [10], in test [16], in test [11], in test [12] and in test [14] was more than 100 µM throughout. The same compound registered a TGI in test [15] of more than 100 µM.

`Brc1ccc2[nH]cc([C@@H]3CN[C@@H](c4c[nH]c5ccc(Br)cc45)CN3)c2c1`: the TGI turned out to be 11.2 µM in test [1]; 7.57 µM in [2]; 20.6 µM in test [3]; 4.39 µM in test [17]; 11.6 µM in test [4]; 16.6 µM in test [5]. Further, the TGI in [7] came to 5.46 µM; in [8] it was 14.7 µM; in test [9], 23.1 µM; in [10] it was 20.3 µM; in [16], 11.6 µM; in [11], 9.59 µM. In addition, the TGI in [12] was found to be 15.6 µM; in [13] it was 27.8 µM; in [14], 3.38 µM; in [15], 5.41 µM; in test [18], 24.5 µM.

As for `CC1(C)CC(=O)c2c(nc3c(ccc4ccccc43)c2-c2ccc(NC(=O)CCCCCCCCC(=O)Nc3ccc(-c4c5c(nc6c4ccc4ccccc46)CC(C)(C)CC5=O)cc3)cc2)C1`, the TGI in [1], in test [3], in [17], in test [4], in [5] and in test [6] was more than 100 µM in each case. The TGI in [7], in test [8], in test [9], in test [10], in test [11] and in test [12] was more than 100 µM each time. Besides, the TGI in test [13], in [14] and in [15] was more than 100 µM each time.

As for `O=C(O)[C@@]1(Cc2ccc(O)cc2)C[C@@H]2Cc3ccccc3N2N1`, the TGI in test [1], in test [2], in test [3], in test [17], in test [4] and in [5] was more than 100 µM each time. In addition, the TGI in [6], in [7], in [8], in test [9], in [10] and in test [11] was more than 100 µM each time. Also, the TGI in test [12], in test [13], in test [14] and in test [15] was more than 100 µM throughout.

On to `O=C(c1ccccc1)c1ccc(N2C(=O)/C(=C/c3cccc([N+](=O)[O-])c3)N=C2c2ccccc2)c(N2C(=O)/C(=C/c3cccc([N+](=O)[O-])c3)N=C2c2ccccc2)c1`, for which the TGI was more than 100 µM in test [1]; more than 100 µM in [2]; more than 100 µM in test [3]; more than 100 µM in test [4]; more than 100 µM in [5]; 86.6 µM in [6]. Moreover, the TGI in test [7] is more than 100 µM; in test [8] it was more than 100 µM; in test [9] it was more than 100 µM; in [10], more than 100 µM; in test [16], 60.1 µM; in test [11] it was more than 100 µM. Also, the TGI in test [12], in test [13] and in [14] was more than 100 µM each time.

On to `CCC1CN2CCc3cc(OC)c(OC)cc3C2CC1CC1c2cc(OC)c(OC)cc2CCN1C(=O)C(Cc1c[nH]c2ccccc12)NC(=O)OC(C)(C)C` (configuration not stated), for which the TGI amounted to 6.29 µM in test [1]; 7.1 µM in [2]; 16.7 µM in test [3]; 5.57 µM in [17]; 4.25 µM in [5]; 3.49 µM in test [6]. Besides, the TGI in [7] worked out at 6.15 µM; in test [8], 9.31 µM; in test [9], 14.5 µM; in [10] it was 10 µM; in [16], 5.24 µM; in test [11], 10.4 µM. Further, the TGI in test [12] is 9.03 µM; in [13] it was 7.13 µM; in [14] it was 3.58 µM; in [15] it was 15.7 µM; in test [18], 7.3 µM.
